In PubChem BioAssay (NCI) one finds GI50 and TGI data, which are given here for eleven compounds.

Several values for one entry are separate records, joined by “and”; a condition that tells them apart may be missing. Equal values may be shown once.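 Assay format: 96-well plates, 48-hour exposure. Here, GI50 denotes the concentration required for 50% inhibition of growth. At the TGI there is no net growth.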

The first assay has as its system UO-31 renal. The assay is described as follows: DTP human tumour cell line panel, 48 h.
Regarding `COc1ccc2c(c1)C(C)Cc1c(ncnc1-n1c(C)nc3ccccc31)N2C` (centres undefined), the GI50 (usually the concentration at which growth is held to half of that of the control) is 4.59 µM and the TGI – broadly, the concentration giving total growth inhibition – stood at 20.7 µM.
`COc1ccc2[nH]c3c4c(ccc3c2c1)C(=O)C=CC4=O` showed a TGI of 28.2 µM.
`COc1cc(C2=C(c3cn(C)c4ccccc34)COC2=O)cc(OC)c1OC`: the GI50 is 0.226 µM and the TGI is 6.37 µM.
Consider `CCOC(=O)CNC(=O)c1ccccc1Nc1ccnc(C(F)(F)F)c1`, for which the GI50 was 24.4 µM and the TGI was above 59.5 µM.
`COc1cc2c(c(OC)n1)[C@]1(O)[C@H](O)[C@H](CN(C)C)[C@@H](c3ccccc3)[C@]1(c1ccc(C#N)cc1)O2`: the GI50 is 0.0224 µM and 0.0197 µM; the TGI was 0.479 µM and 0.319 µM.
Regarding `C=CCSS/C=C/CS(=O)CC=C` (centres undefined), the TGI is above 100 µM.
For the compound `O=C(/C=C/c1cc(CN2CCOCC2)c(O)c2ncccc12)c1cc(CN2CCOCC2)c(O)c2ncccc12`, the GI50 is 0.0408 µM and the TGI is above 100 µM.
In the same order, the values of `[Au+].[Au+].[Au+].[c-]1nccn1Cc1ccccc1.[c-]1nccn1Cc1ccccc1.[c-]1nccn1Cc1ccccc1` are 15 µM and 28.4 µM.
The corresponding values for `C=C1C(=O)O[C@H]2[C@H]1CC/C(COC(=O)c1ccc(Cl)nc1)=C\CC[C@@]1(C)O[C@@H]21` are 1.37 µM and 2.96 µM.
With `COc1cc2ncn(-c3cc(OCCc4ccccc4)c(C(N)=O)s3)c2cc1OC`, the GI50 was 8.16 µM and the TGI is above 25 µM.
Turning to `COc1ccc(OC)c2c(/C=C/c3ccc(N(C)C)cc3)ccnc12`, the TGI is above 10 µM.

In a further assay the test system is HL-60(TB) leukemia. The assay is described as follows: DTP human tumour cell line panel, 48 h.
For `COc1ccc2c(c1)C(C)Cc1c(ncnc1-n1c(C)nc3ccccc31)N2C` (centres undefined), the GI50 was 2.59 µM and the TGI was 9.7 µM.
Consider `COc1ccc2[nH]c3c4c(ccc3c2c1)C(=O)C=CC4=O`, for which the TGI was found to be 1.11 µM.
Consider `COc1cc(C2=C(c3cn(C)c4ccccc34)COC2=O)cc(OC)c1OC`, for which the GI50 was 0.0425 µM and the TGI worked out at 1.46 µM.
In the same order, the values of `CCOC(=O)CNC(=O)c1ccccc1Nc1ccnc(C(F)(F)F)c1` are 33.2 µM and above 100 µM.
Regarding `COc1cc2c(c(OC)n1)[C@]1(O)[C@H](O)[C@H](CN(C)C)[C@@H](c3ccccc3)[C@]1(c1ccc(C#N)cc1)O2`, the GI50 is below 0.01 µM; the TGI is 0.921 µM and 0.213 µM.
With `C=CCSS/C=C/CS(=O)CC=C` (centres undefined), the TGI is above 100 µM.
In the case of `O=C(/C=C/c1cc(CN2CCOCC2)c(O)c2ncccc12)c1cc(CN2CCOCC2)c(O)c2ncccc12`, the GI50 is 0.0309 µM.
`[Au+].[Au+].[Au+].[c-]1nccn1Cc1ccccc1.[c-]1nccn1Cc1ccccc1.[c-]1nccn1Cc1ccccc1`: the GI50 is 3.16 µM and the TGI came to 16 µM.
The corresponding values for `C=C1C(=O)O[C@H]2[C@H]1CC/C(COC(=O)c1ccc(Cl)nc1)=C\CC[C@@]1(C)O[C@@H]21` are 1.57 µM and 4.72 µM.
For the compound `COc1cc2ncn(-c3cc(OCCc4ccccc4)c(C(N)=O)s3)c2cc1OC`, the GI50 is above 20.2 µM and the total growth inhibition concentration (TGI) is above 25 µM.
`COc1ccc(OC)c2c(/C=C/c3ccc(N(C)C)cc3)ccnc12` registered a TGI of 3.86 µM.

Another assay relates to NCI-H23 lung. The experiment in a line: DTP human tumour cell line panel, 48 h.
As for `COc1ccc2c(c1)C(C)Cc1c(ncnc1-n1c(C)nc3ccccc31)N2C` (centres undefined), the GI50 is 3.08 µM and the TGI turned out to be 18.5 µM.
Regarding `COc1ccc2[nH]c3c4c(ccc3c2c1)C(=O)C=CC4=O`, the TGI worked out at 30.2 µM.
`COc1cc(C2=C(c3cn(C)c4ccccc34)COC2=O)cc(OC)c1OC`: the GI50 is 0.233 µM and the TGI was 3.04 µM.
In the same order, the values of `CCOC(=O)CNC(=O)c1ccccc1Nc1ccnc(C(F)(F)F)c1` are 31.5 µM and above 71.8 µM.
For the compound `COc1cc2c(c(OC)n1)[C@]1(O)[C@H](O)[C@H](CN(C)C)[C@@H](c3ccccc3)[C@]1(c1ccc(C#N)cc1)O2`, the GI50 was 0.0182 µM and 0.0111 µM; the TGI was 1.76 µM and 1.03 µM.
For `C=CCSS/C=C/CS(=O)CC=C` (centres undefined), the TGI is above 100 µM.
On to `O=C(/C=C/c1cc(CN2CCOCC2)c(O)c2ncccc12)c1cc(CN2CCOCC2)c(O)c2ncccc12`, for which the GI50 was 0.0586 µM and the TGI was above 100 µM.
For `[Au+].[Au+].[Au+].[c-]1nccn1Cc1ccccc1.[c-]1nccn1Cc1ccccc1.[c-]1nccn1Cc1ccccc1`, the GI50 was 4.97 µM and the TGI worked out at 30.7 µM.
As to `C=C1C(=O)O[C@H]2[C@H]1CC/C(COC(=O)c1ccc(Cl)nc1)=C\CC[C@@]1(C)O[C@@H]21`, the GI50 was 3.08 µM and the TGI came to 12.4 µM.
The corresponding values for `COc1cc2ncn(-c3cc(OCCc4ccccc4)c(C(N)=O)s3)c2cc1OC` are above 25 µM and above 25 µM.
Regarding `COc1ccc(OC)c2c(/C=C/c3ccc(N(C)C)cc3)ccnc12`, the TGI is above 10 µM.

The subject of the next assay is OVCAR-8 ovarian. The assay is described as follows: DTP human tumour cell line panel, 48 h.
For the compound `COc1ccc2c(c1)C(C)Cc1c(ncnc1-n1c(C)nc3ccccc31)N2C` (centres undefined), the GI50 was 4.83 µM and the TGI was 40.1 µM.
Regarding `COc1ccc2[nH]c3c4c(ccc3c2c1)C(=O)C=CC4=O`, the TGI worked out at 12.4 µM.
`COc1cc(C2=C(c3cn(C)c4ccccc34)COC2=O)cc(OC)c1OC`: the GI50 was 0.338 µM and the TGI was above 23.6 µM.
In the same order, the values of `CCOC(=O)CNC(=O)c1ccccc1Nc1ccnc(C(F)(F)F)c1` are above 50.8 µM and above 82.8 µM.
As to `COc1cc2c(c(OC)n1)[C@]1(O)[C@H](O)[C@H](CN(C)C)[C@@H](c3ccccc3)[C@]1(c1ccc(C#N)cc1)O2`, the GI50 is 0.0292 µM and 0.0316 µM; the TGI was 10.1 µM and 11.5 µM.
As for `C=CCSS/C=C/CS(=O)CC=C` (centres undefined), the TGI is 37.1 µM.
Take `O=C(/C=C/c1cc(CN2CCOCC2)c(O)c2ncccc12)c1cc(CN2CCOCC2)c(O)c2ncccc12`: the GI50 was 0.0359 µM and the TGI was above 100 µM.
As to `[Au+].[Au+].[Au+].[c-]1nccn1Cc1ccccc1.[c-]1nccn1Cc1ccccc1.[c-]1nccn1Cc1ccccc1`, the GI50 is 5.06 µM and the TGI is above 42.6 µM.
As for `C=C1C(=O)O[C@H]2[C@H]1CC/C(COC(=O)c1ccc(Cl)nc1)=C\CC[C@@]1(C)O[C@@H]21`, the GI50 is 3.26 µM and the total growth inhibition concentration (TGI) came out at 12.7 µM.
Consider `COc1cc2ncn(-c3cc(OCCc4ccccc4)c(C(N)=O)s3)c2cc1OC`, for which the GI50 was above 25 µM and the TGI is above 25 µM.
`COc1ccc(OC)c2c(/C=C/c3ccc(N(C)C)cc3)ccnc12` yielded a TGI above 10 µM.

For another assay, the system named is SNB-75 CNS. The experiment in a line: DTP human tumour cell line panel, 48 h.
As to `COc1ccc2c(c1)C(C)Cc1c(ncnc1-n1c(C)nc3ccccc31)N2C` (centres undefined), the GI50 was 2.41 µM and the TGI came to 11.1 µM.
Turning to `COc1ccc2[nH]c3c4c(ccc3c2c1)C(=O)C=CC4=O`, the total growth inhibition concentration (TGI) amounted to 41.3 µM.
Turning to `COc1cc(C2=C(c3cn(C)c4ccccc34)COC2=O)cc(OC)c1OC`, the GI50 was 0.0438 µM and the TGI was found to be 0.522 µM.
In the same order, the values of `CCOC(=O)CNC(=O)c1ccccc1Nc1ccnc(C(F)(F)F)c1` are above 100 µM and above 100 µM.
For `COc1cc2c(c(OC)n1)[C@]1(O)[C@H](O)[C@H](CN(C)C)[C@@H](c3ccccc3)[C@]1(c1ccc(C#N)cc1)O2`, the GI50 is 0.1 µM and 0.047 µM; the TGI was 4.58 µM and 2.02 µM.
Take `C=CCSS/C=C/CS(=O)CC=C` (centres undefined): the TGI was above 100 µM.
Take `O=C(/C=C/c1cc(CN2CCOCC2)c(O)c2ncccc12)c1cc(CN2CCOCC2)c(O)c2ncccc12`: the GI50 was 0.0595 µM and the TGI stood at 42.6 µM.
In the same order, the values of `[Au+].[Au+].[Au+].[c-]1nccn1Cc1ccccc1.[c-]1nccn1Cc1ccccc1.[c-]1nccn1Cc1ccccc1` are 6.08 µM and 18.9 µM.
On to `C=C1C(=O)O[C@H]2[C@H]1CC/C(COC(=O)c1ccc(Cl)nc1)=C\CC[C@@]1(C)O[C@@H]21`, for which the GI50 is 12.4 µM and the TGI is 31.6 µM.
Take `COc1cc2ncn(-c3cc(OCCc4ccccc4)c(C(N)=O)s3)c2cc1OC`: the GI50 was above 25 µM and the TGI was above 25 µM.
`COc1ccc(OC)c2c(/C=C/c3ccc(N(C)C)cc3)ccnc12` showed a TGI above 10 µM.
